The results in this text go back to the Deep4Chem optical property database.

This data set can be described thus: solvent given as SMILES.
Setting [1] is: in O=P(c1ccccc1)(c1ccccc1)c1ccc2oc3ccc(P(=O)(c4ccccc4)c4ccccc4)cc3c2c1.

For `CCC1(CC)c2cc(-c3ccc(-c4ccc5c(c4)C(CC)(CC)c4cc(C(C)(C)C)ccc4-5)cc3)ccc2-c2ccc(C(C)(C)C)cc21`, the fluorescence lifetime runs as follows: (in CCCCC) 0.74 ns; (in CCCCCC) 0.69 ns; (in CCCCCCC) 0.7 ns; (in CCCCCCCC) 0.7 ns; (in CCCCCCCCC) 0.72 ns; (in CCCCCCCCCC) 0.79 ns. Besides, the fluorescence lifetime runs as follows: (in CCCCCCCCCCCC) 0.78 ns; (in CCCCCCCCCCCCC) 0.82 ns; (in CCCCCCCCCCCCCCC) 0.81 ns; (in CCCCCCCCCCCCCCCC) 0.82 ns; (in CCCCCCCCCCO) 0.79 ns; (in CCCCCCCCCO) 0.87 ns. Moreover, the fluorescence lifetime by setting is: (in CCCCCCCCO) 0.84 ns; (in CCCCCCCO) 0.8 ns; (in CCCCCCO) 0.81 ns; (in CCCCCO) 0.77 ns; (in CCCCO) 0.79 ns; (in CCCO) 0.72 ns. The fluorescence lifetime is 0.82 ns (in CCO) and 0.8 ns (in CO).

Regarding `C#CCn1c2ccccc2c2cc(/C=C/c3cc(C)c4n3[B-](F)(F)[N+]3=C(C)C=C(C)C3=C4c3ccc(I)cc3)ccc21`, the fluorescence lifetime came out at 4.03 ns (in CC#N), 3.64 ns (in CS(C)=O) and 3.93 ns (in ClC(Cl)Cl).

`Nc1nc2ccc(Br)cc2s1`: the fluorescence lifetime runs as follows: (in CC#N) 1.91 ns; (in ClCCl) 1.37 ns.

Turning to `C(=C\c1ccc(/C=C/c2ccc(N(c3ccccc3)c3ccccc3)cc2)c2nsnc12)/c1ccc(N(c2ccccc2)c2ccccc2)cc1`, the fluorescence lifetime stood at 4.53 ns (in C1CCOC1); 4.74 ns (in CCOC(C)=O); 2.75 ns (in CN(C)C=O); 4.29 ns (in Cc1ccccc1); 4.21 ns (in ClC(Cl)Cl); 4.1 ns (in ClCCl).

As to `CCCCCCN(CCCCCC)c1ccc(C#Cc2ccc(C#N)cc2)cc1`, the fluorescence lifetime runs as follows: (in CC#N) 1 ns; (in CO) 1 ns; (in ClCCl) 2.8 ns.

Regarding `Cc1cccc2c3ccccc3n(-c3ccc(-c4c(-c5ccccc5)c(C#N)c(C#N)c(-c5ccccc5)c4-c4ccc(-n5c6ccccc6c6cccc(C)c65)cc4)cc3)c12`, the fluorescence lifetime under setting [1] was found to be 41 ns.

Consider `COc1c2ccccc2c(OC)c2c1c1c(C)ccc(OC)c1n2C`, for which the fluorescence lifetime turned out to be 17.6 ns (in C1CCCCC1), 24.2 ns (in CC#N), 21.5 ns (in CO) and 17.6 ns (in ClCCl).

Molecule `CN(C)c1ccc2c(c1)C(=O)NC2=O` showed a fluorescence lifetime (in C1CCOC1) of 13.8 ns, a fluorescence lifetime (in C1COCCO1) of 14.9 ns and a fluorescence lifetime (in CC#N) of 3.9 ns.

As for `CCCCc1cc2cccc[n+]2[b-]2c(-c3cccc4[b-]3[n+]3ccccc3cc4CCCC)cccc21`, the fluorescence lifetime (in C1CCCCC1) was determined as 4.3 ns.

`N#Cc1c(-n2c3ccccc3c3ccccc32)c(-n2c3ccccc3c3ccccc32)c(-n2c3ccccc3c3ccccc32)c(-n2c3ccccc3c3ccccc32)c1-n1c2ccccc2c2ccccc21`: the fluorescence lifetime by setting is: (in Cc1ccccc1) 3.8 ns; (in c1cc(-c2cccc(-n3c4ccccc4c4ccccc43)c2)cc(-n2c3ccccc3c3ccccc32)c1) 3.2 ns.

In turn, `Cc1cc(C)c2c(c1)c1cc(C)cc(C)c1n2-c1ccc2c(c1)Sc1cc3c(cc1B2c1c(C(C)C)cc(C(C)C)cc1C(C)C)B(c1c(C(C)C)cc(C(C)C)cc1C(C)C)c1ccccc1S3` returned a fluorescence lifetime (in Cc1ccccc1) of 0.65 ns and a fluorescence lifetime under setting [1] of 2 ns.

With `CC1=[N+]2C(=Cc3cccn3[B-]2(F)F)C=C1`, the fluorescence lifetime reads like this: (in CCCCCC) 6.75 ns; (in CO) 6.96 ns; (in ClCCl) 6.2 ns.

For the molecule `CCCCC(CC)COc1ccc2nc(-c3ccc(-c4ccc(OC)cc4)s3)sc2c1` (configuration not stated), under “in ClCCl”, the fluorescence lifetime was 1.52 ns.

In turn, `COc1ccc(C2=C(c3ccc(OC)cc3)C(c3ccccc3)=[N+]3C2=Nc2c(-c4ccc(OC)cc4)c(-c4ccc(OC)cc4)c(-c4ccccc4)n2[B-]3(F)F)cc1` showed a fluorescence lifetime (in Cc1ccccc1) of 0.08 ns.

The molecule `COc1ccc2ccc(O)cc2c1` came in with a fluorescence lifetime (in O) of 8.33 ns.

For `c1ccc(-c2nn(-c3ccccc3)c3nc4ccc(N(c5ccccc5)c5cccc6ccccc56)cc4cc23)cc1`, the fluorescence lifetime (in C1CCCCC1) was 11.3 ns; the fluorescence lifetime (in C1CCOC1) turned out to be 15.5 ns; the fluorescence lifetime (in CC#N) is 16.3 ns; the fluorescence lifetime (in CC(C)=O) stood at 19.3 ns; the fluorescence lifetime (in CCCCCl) worked out at 14.9 ns; the fluorescence lifetime (in CCCCOCCCC) was 12.9 ns. The fluorescence lifetime (in CN(C)C=O) worked out at 15.8 ns.

Regarding `c1ccc(-c2nc3c(c4c2-c2ccccc2CC4)-c2ccccc2CC3)cc1`, the fluorescence lifetime amounted to 1.39 ns (in CC#N), 0.26 ns (in CCCCCC), 0.29 ns (in CO) and 0.51 ns (in CS(C)=O).

As to `O=C1C(=c2c(=O)c3c4ccccc4cc4cc5ccccc5c2c43)C(=O)c2ccccc21`, the fluorescence lifetime (in C1CCOC1) was 10.7 ns; the fluorescence lifetime (in CC#N) was determined as 6.9 ns; the fluorescence lifetime (in CCCCCC) came to 12.4 ns; the fluorescence lifetime (in Cc1ccccc1) was determined as 11.3 ns; the fluorescence lifetime (in ClCCl) worked out at 8.7 ns.

On to `Cc1cc(C)c(B(c2c(C)cc(C)cc2C)c2ccc3ccc4cccc5ccc2c3c45)c(C)c1`, for which the fluorescence lifetime (in Cc1ccccc1) was determined as 3 ns.

In the case of `CCOC(=O)c1ccccc1-c1c2ccc(=[N+](CC)CC)cc-2oc2c1c(=O)oc1cc(N(CC)CC)ccc12`, the fluorescence lifetime came out at 2.12 ns (in CCO), 4.31 ns (in ClC(Cl)Cl) and 0.27 ns (in O).

In the case of `CCOc1cc2c(cc1/C=C/C(=C(C#N)C#N)c1ccccc1)c1ccccc1n2CC`, the fluorescence lifetime runs as follows: (in C1CCOC1) 5.66 ns; (in CC#N) 5.72 ns; (in CCO) 5.24 ns; (in CCOC(C)=O) 5.19 ns; (in CN(C)C=O) 5.41 ns; (in CS(C)=O) 7.08 ns. In addition, the fluorescence lifetime reads like this: (in Cc1ccccc1) 6.76 ns; (in ClC(Cl)Cl) 7.78 ns; (in ClCCl) 5.13 ns.

Regarding `F[B-]12Oc3ccccc3-c3c4[n+]5c(c([n+]31)-c1ccccc1O2)-c1ccccc1O[B-]5(F)Oc1ccccc1-4`, the fluorescence lifetime (in ClCCl) was 4.52 ns.

Molecule `Fc1c(-c2nnc(-c3ccccc3)o2)c(-n2c3ccccc3c3ccccc32)c(F)c(-n2c3ccccc3c3ccccc32)c1-n1c2ccccc2c2ccccc21` gave a fluorescence lifetime (in Cc1ccccc1) of 7.7 ns.

As for `c1ccc([B-]23NC(C4CCCCC4)=Nc4cccc([n+]42)N=C(C2CCCCC2)N3)cc1`, the fluorescence lifetime (in ClCCl) turned out to be 4.6 ns.

`Oc1ccc2cc(C3(O)C4CC5CC(C4)CC3C5)ccc2c1` (configuration not stated) showed a fluorescence lifetime (in CC#N) of 8.14 ns.

Take `C[n+]1c2c(c(-c3ccccc3)c3c1CCCC3)CCCC2`: under “in CCO”, the fluorescence lifetime came out at 5.39 ns.

With `CCCCCCCc1ccc(C2=[N+]3C(=C4c5cc(OCC(CC)CC)c(-c6ccc(CCCCCCC)o6)n5[B-](F)(F)[n+]5nnn(c54)[B-]3(F)F)C=C2OCC(CC)CC)o1`, the fluorescence lifetime by setting is: (in C1CCOC1) 0.3 ns; (in ClCCl) 0.3 ns.

In the case of `Cc1cc(C(F)(F)F)nc2c1ccc1nc(-c3ccc(Cl)cc3)cn12`, the fluorescence lifetime was 8.1 ns (in CC#N); 6.83 ns (in CCCCOC(C)=O); 6.72 ns (in CCOC(C)=O); 7.89 ns (in CO); 6.26 ns (in c1ccccc1).

In the case of `CC(C)(C)c1ccc2c(c1)c1cc(C(C)(C)C)ccc1n2-c1ccc(-c2ccc3c(c2)C2(c4cc(-c5ccc(-n6c7ccc(C(C)(C)C)cc7c7cc(C(C)(C)C)ccc76)cc5)ccc4-3)c3ccccc3S(=O)(=O)c3ccccc32)cc1`, the fluorescence lifetime (in ClCCl) amounted to 1.8 ns.

Regarding `Cc1ccc(-c2ccc(/C=C/c3ccc(Cl)cc3)cn2)nc1`, the fluorescence lifetime (in CC#N) amounted to 1.01 ns.

Under “in CC(C)(C)c1ccc(-n2c3ccc([Si](c4ccccc4)(c4ccccc4)c4ccccc4)cc3c3cc([Si](c4ccccc4)(c4ccccc4)c4ccccc4)ccc32)cc1”, `Cc1cc(C)c(C)c(B(c2c(C)c(C)cc(C)c2C)c2c(C)c(C)c(N3c4ccccc4Oc4ccccc43)c(C)c2C)c1C` displayed a fluorescence lifetime of 5.9 ns.

With `COc1ccc(C2=CC(c3ccc4ccccc4c3)=[O+][B-](C(C)=O)(C(C)=O)O2)cc1`, the fluorescence lifetime (in CC#N) was found to be 3 ns and the fluorescence lifetime (in ClC(Cl)(Cl)Cl) was found to be 1.2 ns.

For `N#C/C(=C(/C#N)c1ccc(-c2ccncc2)cc1)c1ccc(-c2ccncc2)cc1`, the fluorescence lifetime (in ClCCl) came out at 0.1 ns.

`O=S(=O)([O-])CCC[n+]1c2ccccc2cc2ccccc21`: the fluorescence lifetime (in O) was 31.2 ns.

On to `CC1=N/C(=C\c2ccc(C#N)c(N(C)C)c2)C(=O)N1C`, for which the fluorescence lifetime reads like this: (in C1CCOC1) 6.8 ns; (in CC#N) 3.5 ns; (in CCCCCC) 16 ns.

With `COc1ccc(-c2nc(C(C)=O)c(C)o2)cc1`, the fluorescence lifetime is, setting by setting: (in CC#N) 3.92 ns; (in CCO) 2.31 ns; (in CCOC(C)=O) 4.53 ns; (in CCOCC) 1.79 ns; (in ClCCl) 1.7 ns.

For the setting “in ClC(Cl)Cl”, `C(#Cc1ccccc1)C(C#Cc1ccccc1)=Cc1ccc(C=C(C#Cc2ccccc2)C#Cc2ccccc2)cc1` came in with a fluorescence lifetime of 1.2 ns.

As to `CC(C)(C)c1ccc2c(c1)B1c3cc(C(C)(C)C)ccc3Oc3cc(N4c5ccccc5C(C)(C)c5ccccc54)cc(c31)O2`, the fluorescence lifetime (in Cc1ccccc1) came to 6.6 ns.

On to `N#Cc1c(-n2c3ccccc3c3ccccc32)c(C#N)c(-n2c3ccccc3c3ccccc32)c(-n2c3ccccc3c3ccccc32)c1-n1c2ccccc2c2ccccc21`, for which, under “in Cc1ccccc1”, the fluorescence lifetime worked out at 17.8 ns.
